The text below walks through data of patent US11713320B2, “5-heteroaryl substituted indazole-3-carboxamides and preparation and use thereof” (BioSplice Therapeutics, Inc., priority 2018, dated 2023).

The test system of experiment [1] is primary human mesenchymal stem cells (hMSCs). In words: Tenocyte differentiation assay in hMSCs (SCXA staining). In kind it is cell-based. Conditions: given for EC50 of >100 μM; not defined in the method. An excerpt:
Representative compounds were screened using primary human mesenchymal stem cells (hMSCs) to determine their ability to induce tenocyte differentiation (process by which tendon is developed).
Human Mesenchymal Stem Cell Culture: Primary human mesenchymal stem cells (hMSCs) were purchased from Lonza (Walkersville, Md.) and expanded in Mesenchymal Stem Cell Growth Media (Lonza). Cells between passage 3 and 6 were used for the experiments.
Cells were fixed using 4% formaldehyde (Electron Microscopy Sciences), and stained with anti-Sclerasis (anti-SCXA) antibodies (Abgent, San Diego, Calif.) [Webb S., et. al., Retinoic acid receptor signaling preserves tendon stem cell characteristics and prevents spontaneous differentiation in vitro, Stem Cell Research & Therapy 2016, 7:45] overnight at 4° C. […] Number of cells positive for SCXA in each well was quantified using the CellInsight CX5. Data was normalized to the average of 12 DMSO treated wells on the same plate using Dotmatics Studies module. The normalized averages (fold change over DMSO) of 3 replicate wells for each compound concentration were calculated. Due to solubility limitations of some of the compounds, values for higher doses were manually corrected and curve fitting and EC50 determinations were performed using Dotmatics Studies.

The next experiment deals with IL-6. Kind of experiment: IL-6 inhibition in LPS-stimulated human PBMCs (HTRF). It is filed as cell-based. The following applies: PBMC; for EC50: IL-6, huPBMCs, LPS 50 ng/mL, 22 hours. As for the experimental part: Human Peripheral Blood Mononuclear Cells: Fresh Normal PB MNC (Catalog #PB001, AllCells, Alameda, Calif.) were shipped overnight at 4° C. and resuspended in Roswell Park Memorial Institute (RPMI) 1640 Medium, with GlutaMAX Supplement (Catalog #61870127, ThermoFisher Scientific, Waltham, Mass.) supplemented with 1% Penicillin-Streptomycin (Catalog #15140163, ThermoFisher Scientific, Waltham, Mass.) and 1% fetal bovine serum (FBS) (Catalog #16140089, ThermoFisher Scientific, Waltham, Mass.) assay media.
Compound Screening: Fresh normal human peripheral blood mononuclear cells (huPBMCs) were resuspended in 1% FBS-RPMI assay media with 1% Penicillin-Streptomycin 1% to a cell concentration of 1×10e6 cells/mL. […] 50 ng/mL of Lipopolysaccharides from Escherichia coli 0111:B4 (Catalog #L5293-2ML, Sigma-Aldrich, St. Louis, Mo.) was added after 2 hours and cells were incubated for another 22 hours at 37° C.-5% CO2. After 22 hour incubation, a mixture of anti-IL6 XL665 and anti-IL-6 Cryptate diluted in reconstitution buffer (Catalog #62IL6PEC, Cisbio Inc., Bedford, Mass.) was added to each well. Following incubation for 3 hours at room temperature, Homogeneous Time-Resolved Fluorescence (HTRF) was measured using the Envision (Perkin Elmer, Shelton, Conn.) at 665 nm and […]. The ratio of fluorescence at 665 nm to 620 nm was used as a readout for IL-6 quantification. All samples were processed in duplicate. Readings were normalized to DMSO treated cells and normalized activities were utilized for EC50 calculations. EC50 was determined using software generated by Dotmatics Limited (Windhill Bishops Stortford Herts, UK) using the Levenberg-Marquardt 4 parameter fitting procedure with finite different gradients.
Background: TR-FRET usually uses a lanthanide donor and a delayed reading to cut background.

The test system of experiment [2] is primary human fibroblasts derived from IPF patients (LL29 cells) treated with TGF-β1. Kind of experiment: Inhibition of the fibrotic process: αSMA staining in TGF-β1 treated LL29 fibroblasts. Conditions: % cells positive for αSMA, TGF-β1 20 ng/mL, 4 days. In kind it is cell-based. How it is done:
Representative compounds were screened using primary human fibroblasts (derived from IPF patients) treated with TGF-β1 to determine their ability to inhibit the fibrotic process.
LL29 cells were plated at 1,500 cells/well in 70 μL/well F12 medium supplemented with 1% Fetal Bovine Serum. […] Wells treated with TGF-β1 and containing DMSO were used as positive control, and cells with only DMSO were negative control. […] Following incubation for 4 days, SYTOX green nucleic acid stain (Life Technologies [Thermo Fisher Scientific]) was added to the wells at a final concentration of 1 μM and incubated at room temperature for 30 min.

Experiment [3] concerns Wnt activity (Sp5-Luc reporter, TCF/LEF binding sites) in SW480 colon carcinoma cells. In words: Screening assay for Wnt activity: Sp5-Luc reporter gene assay in SW480 cells. In kind it is cell-based, human. The following applies: 36 to 48 hours. An excerpt:
The screening assay for Wnt activity is described as follows. Reporter cell lines can be generated by stably transducing cancer cell lines (e.g., colon cancer) or primary cells (e.g., IEC-6 intestinal cells) with a lentiviral construct that includes a Wnt-responsive promoter driving expression of the firefly luciferase gene.
SW480 colon carcinoma cells were transduced with a lentiviral vector expressing luciferase with a human Sp5 promoter consisting of a sequence of eight TCF/LEF binding sites. SW480 cells stably expressing the Sp5-Luc reporter gene and a hygromycin resistance gene were selected by treatment with 150 μg/mL of hygromycin for 7 days. These stably transduced SW480 cells were expanded in cell culture and used for all further screening activities. […] For Sp5-Luc reporter gene assays, the cells were plated at 4,000 cells/well in 384-well plates with a DMEM medium containing 1% fetal bovine serum, and 1% Penicillin-Streptomycin and incubated for 36 to 48 hours at 37° C. and 5% CO2. Following incubation, 15 μl of BriteLite Plus luminescence reagent (Perkin Elmer) was added to each well of the 384-well assay plates. The plates were placed on an orbital shaker for 2 min and then luminescence was quantified using the Envision (Perkin Elmer) plate reader. Readings were normalized to DMSO only treated cells, and normalized activities were utilized for EC50 calculations using the dose-response log (inhibitor) vs. response variable slope (four parameters) nonlinear regression feature available in GraphPad Prism 5.0 (or Dotmatics).

For experiment [4], the system named is SW480 colon carcinoma cells. Kind of experiment: Cell viability assay (CellTiter-Glo) in SW480 cells. The following applies: four days. In kind it is cell-based, human. As for the experimental part:
Representative compounds were screened using the assay procedure to assess the effect on cell viability as described below.
SW480 colon carcinoma cells were transduced with a lentiviral vector expressing luciferase with a human Sp5 promoter consisting of a sequence of eight TCF/LEF binding sites. SW480 cells stably expressing the Sp5-Luc reporter gene and a hygromycin resistance gene were selected by treatment with 150 μg/mL of hygromycin for 7 days. These stably transduced SW480 cells were expanded in cell culture and used for all further screening activities.
For the Cell Viability Assays, the cells were plated at 2,000 cells/well in 384-well plates with a DMEM medium containing 1% fetal bovine serum, and 1% Penicillin-Streptomycin and incubated for […] at 37° C. and 5% CO2. Eight replicates of DMSO-treated cells served as controls and cells treated with compound were performed in duplicate.
After incubation, 10 μL of CellTiter-Glo (Promega) was added to each well allowed to incubate for approximately 12 minutes. This reagent “results in cell lysis and generation of a luminescent signal proportional to the amount of ATP present. The amount of ATP is directly proportional to the number of cells present in culture, in agreement with previous reports. The CellTiter-Glo® Assay generates a “glow-type” luminescent signal, produced by the luciferase reaction (Promega.com)”.
Background: Cellular ATP, detected with luciferase, serves as a proxy for viable cell number.

Consider `Cc1ncc(-c2ccc3[nH]nc(C(=O)Nc4ccc(OC5CCN(C)CC5)cc4)c3c2)s1` [Compound 82, N-(4-((1-Methylpiperidin-4-yl)oxy)phenyl)-5-(2-methylthiazol-5-yl)-1H-indazole-3-carboxamide], for which, in experiment [1], the “percent value in parentheses beside EC50 >100” value (“percent value” for short) was “(2.9%)”.

On to `CN1CCC(Oc2ccc(NC(=O)c3n[nH]c4c(F)cc(-c5cnn(C)c5)cc34)cn2)CC1` [Compound 129, 7-Fluoro-5-(1-methyl-1H-pyrazol-4-yl)-N-(6-((1-methylpiperidin-4-yl)oxy)pyridin-3-yl)-1H-indazole-3-carboxamide], for which, in experiment [1], the “percent value” value is “(13.0%)”.

For “5-(1,2-Dimethyl-1H-imidazol-5-yl)-N-(2-methylthiazol-5-yl)-1H-indazole-3-carboxamide [Compound 139]”, in experiment [1], the “percent value” value is reported as “(21.2%)”.

On to `Cn1cc(-c2cc3c(C(=O)Nc4cccc(OCCN5CCCC5)c4)n[nH]c3cc2F)cn1` [Compound 154, 6-Fluoro-5-(1-methyl-1H-pyrazol-4-yl)-N-(3-(2-(pyrrolidin-1-yl)ethoxy)phenyl)-1H-indazole-3-carboxamide], for which the “percent value” value in experiment [1] is “(21.0%)”.

Regarding `CN1CCN(c2cccc(NC(=O)c3n[nH]c4cc(F)c(-c5cnn(C)c5)cc34)c2)CC1` [Compound 149, 6-Fluoro-5-(1-methyl-1H-pyrazol-4-yl)-N-(3-(4-methylpiperazin-1-yl)phenyl)-1H-indazole-3-carboxamide], the “percent value” value in experiment [1] was “(36.0%)”.

As to `Cn1cc(-c2cc(F)c3[nH]nc(C(=O)NC4CCN(CC(F)F)CC4)c3c2)cn1` [Compound 101, N-(1-(2,2-Difluoroethyl)piperidin-4-yl)-7-fluoro-5-(1-methyl-1H-pyrazol-4-yl)-1H-indazole-3-carboxamide], the “percent value” value in experiment [1] is “(33.0%)”.

For the compound `CN1CCC(Oc2cccc(NC(=O)c3n[nH]c4cc(F)c(-c5cnn(C)c5)cc34)c2)CC1` [Compound 151, 6-Fluoro-5-(1-methyl-1H-pyrazol-4-yl)-N-(3-((1-methylpiperidin-4-yl)oxy)phenyl)-1H-indazole-3-carboxamide], in experiment [1], the “percent value” value is reported as “(3.5%)”.

For `Cc1cc(NC(=O)c2n[nH]c3ccc(-c4cnn(C5CCN(C)CC5)c4)cc23)sn1` [Compound 143, N-(3-Methylisothiazol-5-yl)-5-(1-(1-methylpiperidin-4-yl)-1H-pyrazol-4-yl)-1H-indazole-3-carboxamide], the “percent value” value in experiment [1] is “(23.0%)”.

Take `Cc1ncc(-c2ccc3[nH]nc(C(=O)NC4CCN(CC(C)(C)F)CC4)c3c2)n1C` [Compound 42, 5-(1,2-Dimethyl-1H-imidazol-5-yl)-N-(1-(2-fluoro-2-methylpropyl)piperidin-4-yl)-1H-indazole-3-carboxamide]: the EC50 in the experiment with IL-6 was greater than 10 µM; in experiment [2] (Homo sapiens, Fibroblast, 96 h), 1.36 µM; in experiment [3] (Homo sapiens) it was 0.507 µM; in experiment [4] (Homo sapiens, 96 h) it was greater than 10 µM. For the same compound, in the experiment on IL-6 (read-out: percent inhibition at 10 μM), the inhibition at 10 µM came out at 10.4%.

On to `C[C@H]1C[C@H](NC(=O)c2n[nH]c3ccc(-c4cnn(C)c4)cc23)CCN1CC(C)(C)F` [Compound 44, N-((2S,4R)-1-(2-fluoro-2-methylpropyl)-2-methylpiperidin-4-yl)-5-(1-methyl-1H-pyrazol-4-yl)-1H-indazole-3-carboxamide], for which the EC50 in the experiment with IL-6 was determined as 1.03 µM; in experiment [2] (Homo sapiens, Fibroblast, 96 h), 0.199 µM; in experiment [3] (Homo sapiens), 0.279 µM; in experiment [4] (Homo sapiens, 96 h), 1.52 µM.

Compound `O=C(Nc1ccc(F)cc1)c1n[nH]c2ccc(-c3cnc4n3CCNC4)cc12` [Compound 52, N-(4-Fluorophenyl)-5-(5,6,7,8-tetrahydroimidazo[1,2-a]pyrazin-3-yl)-1H-indazole-3-carboxamide] gave an EC50 in experiment [2] (Homo sapiens, Fibroblast, 96 h) of 0.54 µM. That is a sub-micromolar value.

Regarding `CC(C)(F)CN1CCC(n2cc(-c3ccc4[nH]nc(C(=O)Nc5ccc(OC(F)F)cc5)c4c3)cn2)CC1` [Compound 61, N-(4-(difluoromethoxy)phenyl)-5-(1-(1-(2-fluoro-2-methylpropyl)piperidin-4-yl)-1H-pyrazol-4-yl)-1H-indazole-3-carboxamide], the EC50 was 0.009 µM in experiment [2], greater than 10 µM in experiment [3] and greater than 10 µM in experiment [4].

The EC50 is the concentration giving half of the maximal effect. As a reminder, the inhibition is how much of the control response was suppressed.
